How the values were obtained:
[1] = test system: soil-bed decay of Southern Pine Mini-Stakes; test: Accelerated Soil-bed Decay Test of Southern Pine Mini-Stakes (AWPA Standard Test Method E14); settings: addition of 0.8% 2HT; all three retention levels; after about 10 years exposure
Excerpt: A decay rating of 100 means no decay, and a rating of 0 indicates failure due to decay.

Postia placenta = test: Standard soil-block decay test (AWPA Standard Test Method E-10); assay type: cell-based; settings: 2HT at 0.8% in the treating solution
Excerpt: The vertical axis is percent weight loss of the wood blocks (negative numbers represent weight gain), and the horizontal axis is ACQ® wood preservative retention in the wood blocks expressed on a weight preservative/weight wood basis. […] The toxic threshold of ACQ® wood preservative against Postia placenta is estimated to be 0.7-0.8% in this test (FIG. 4).

## dimethyl di(hydrogenated tallow) ammonium compound [2HT]
[1]
  effect on performance of ACQ wood preservative in soil-bed decay test: improves the performance
Postia placenta
  effect on toxicity of ACQ wood preservative toward Postia placenta: almost double

From patent US7993756B2, “Long-chain quaternary ammonium compounds as wood treatment agents” (Viance, LLC, priority 2005, dated 2011)
